From PubChem BioAssay (NCI) come the findings set out here.

Test in all cases: NCI anticancer screen, dose series, 48 h
Assay [1] concerns COLO 205 colon.
Assay [2] concerns HCC-2998 colon.
Assay [3] relates to HT29 colon.
The subject of assay [4] is IGROV1 ovarian.
For assay [5], the system named is K-562 leukemia.
Assay [6] concerns NCI-H23 lung.
Assay [7] relates to OVCAR-4 ovarian.
Assay [8] relates to SF-268 CNS.
Assay [9] deals with SK-MEL-2 melanoma.
For assay [10], the system named is UACC-257 melanoma.

Several values for one entry are separate records, joined by “and”; a condition that tells them apart may be missing. Equal entries are not always repeated.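 A five-concentration, 48-hour dose response in 96-well plates underlies each endpoint, interpolated linearly between surrounding concentrations. GI50: concentration for 50% inhibition of growth. TGI is the concentration that stops growth completely.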 A value given as a limit tells only on which side of the number the result lay.

Consider `OCC1OC(n2cnc3cccnc32)CC1O` (stereo unspecified), for which the TGI in assay [1], in assay [2], in assay [3], in assay [4], in assay [5] and in [6] was above 100 µM throughout. Further, the TGI in assay [7], in assay [8], in assay [9] and in assay [10] was above 100 µM each time.

`C/C(=C/CO[Si](C)(C)C(C)(C)C)C(=O)N(C)c1ccccc1I`: the TGI in assay [1] is 33.8 µM; in assay [2], 28.3 µM; in assay [3], 22.6 µM; in assay [4], 29.9 µM; in [5] it was above 100 µM; in [6] it was 41.2 µM. Moreover, the TGI was determined as 31.2 µM in [7], 33.4 µM in assay [8], 30.5 µM in assay [9] and 26.4 µM in [10].

Take `COC(=O)c1sc(=S)sc1SCc1ccccc1CSc1sc(=S)sc1C(=O)OC`: the TGI in assay [1], in [2], in assay [3], in assay [4], in [5] and in assay [6] was above 100 µM throughout. In addition, the TGI in assay [7], in [8], in [9] and in assay [10] was above 100 µM in each case.

For `O=C1/C(=C/c2ccccc2)CCc2ccc(Cl)nc21`, the TGI in assay [1] worked out at 40.5 µM; in assay [2], 48.4 µM; in assay [3], 3.78 µM; in assay [4] it was 17.7 µM; in assay [5] it was 6.78 µM; in [6], 45.5 µM. The TGI in [7] was above 83.5 µM; in assay [8], above 64.8 µM; in assay [9] it was 37.8 µM; in assay [10], 20.4 µM.

As for `CC(=O)O[C@H]1C#C/C=C\C#CC[C@@H]2C(=O)N(C(=O)OC(C)(C)C)[C@@H]12`, the TGI was above 100 µM in assay [1]; above 67.5 µM in assay [2]; above 100 µM in assay [3]; above 100 µM in [4]; above 100 µM in [5]; above 69 µM in assay [6]. Moreover, the TGI is above 100 µM in assay [7], above 75.2 µM in assay [8], above 93 µM in assay [9] and above 100 µM in [10].

As to `CCCCC[C@@H]1OCO[C@@]2(C)/C=C(C)/C=C/C(=O)O[C@H]([C@@H](C)[C@@H](O)[C@H](C)[C@@]3(O)C[C@@H](O[C@H]4C[C@@H](O)[C@H](O)[C@@H](C)O4)[C@H](C)[C@@H](C)O3)[C@@H](OC)/C=C/C=C(\C)C[C@@H]1[C@@H]2O` (stereo in doubt), the TGI was 0.666 µM in assay [1]; 0.745 µM in [2]; 0.0544 µM in assay [3]; 8.22 µM in [4]; 7.54 µM in [5]; 11.5 µM in assay [6]. For the same compound, the TGI is 8.38 µM in assay [7], 7.77 µM in [8], below 0.005 µM in assay [9] and below 0.005 µM in assay [10].

Turning to `Cc1cc2ccccc2c[n+]1CC(O)C[n+]1cc2ccccc2cc1C`, the TGI in assay [1], in assay [2], in [3], in assay [4], in [5] and in assay [6] was above 100 µM each time. In addition, the TGI in assay [7], in [8], in assay [9] and in assay [10] was above 100 µM in each case.

For the compound `CC1=CC(O)C(O)C2(C)C1CC1OC(=O)C(O)C3C(C)C(O)C4(O)OCC13C42` (stereo unspecified), the TGI in assay [1] is 79.7 µM; in assay [2] it was 126 µM; in assay [3] it was 159 µM; in assay [4], 224 µM; in assay [5], above 394 µM; in [6], 250 µM. Moreover, the TGI in assay [7] stood at 476 µM; in [8], 444 µM; in [9], 196 µM; in assay [10], 467 µM.

For the compound `Cc1cc2ccccc2n1CC(=O)NCC(C)C`, the TGI in assay [1], in [2], in [3], in assay [4], in assay [5] and in assay [6] was above 100 µM in each case. For the same compound, the TGI in assay [7], in assay [8], in [9] and in assay [10] was above 100 µM in each case.

`C/C(O)=C(\C=N\C(N)=S)C(=O)Nc1ccccc1C`: the TGI in assay [1], in assay [2], in assay [3], in assay [4], in assay [5] and in assay [6] was above 100 µM each time. Besides, the TGI in assay [7], in assay [8], in assay [9] and in assay [10] was above 100 µM each time.

`CC(=O)/C=C/C=C(\C)CC/C=C(\C)CC(C)C`: the TGI was 39 µM in assay [1]; 34.7 µM in [2]; above 100 µM in assay [3]; above 100 µM in assay [4]; 56.8 µM in assay [5]; 54.9 µM in assay [6]. Besides, the TGI in assay [7] was above 100 µM; in [8], above 100 µM; in assay [9], 42.3 µM; in [10] it was 60 µM.

For the compound `O=C(O)C(CCc1ccccn1)c1ccccc1` (stereo unspecified), the TGI in assay [1], in assay [2], in [3], in assay [4], in [5] and in assay [6] was above 100 µM each time. In addition, the TGI in assay [7], in [8], in [9] and in assay [10] was above 100 µM each time.

With `CN(CCc1ccc(Cl)c(Cl)c1)[C@H]1CCCC[C@H]1N1CCCC1`, the TGI in [1], in [2], in assay [3], in [4], in assay [5] and in assay [6] was above 100 µM each time. The TGI in [7], in assay [8], in [9] and in assay [10] was above 100 µM each time.

Take `Clc1nc(-[n+]2ccc(-c3ccncc3)cc2)nc(Nc2ccccc2)c1Cl`: the TGI in assay [1], in [2], in assay [3], in assay [4], in assay [5] and in assay [6] was above 100 µM each time. Also, the TGI in assay [7], in assay [8], in assay [9] and in assay [10] was above 100 µM in each case.

As for `Cc1csc2c1C(=O)c1ccsc1C2=O`, the TGI in assay [1] is 24.8 µM; in assay [2], 14.6 µM; in [3], 7.33 µM; in [4], 11.8 µM; in [5], above 25.6 µM; in assay [6], 2.5 µM. In addition, the TGI turned out to be 3.34 µM in [7], 12.1 µM in assay [8], 4.51 µM in assay [9] and 2.88 µM in assay [10].

As to `Cc1ccc(C(=O)N(C(C)C)C(C)C)cc1N=NN(C)C`, the TGI in [1], in assay [2], in assay [3], in assay [4], in assay [5] and in assay [6] was above 100 µM in each case. The TGI was above 100 µM in [7], 98 µM in assay [8], above 100 µM in assay [9] and above 100 µM in assay [10].

As to `Nc1ccc2c(c1)C(=O)c1ccccc1-2`, the TGI in [1], in [2], in [3], in assay [4], in assay [5] and in [6] was above 100 µM each time. For the same compound, the TGI in assay [7], in [8], in assay [9] and in assay [10] was above 100 µM in each case.

For the compound `Cc1cc(C)c(S(=O)(=O)N(CCCCN)OCCCN)c(C)c1`, the TGI in assay [1] amounted to 22.7 µM; in [2] it was 5.59 µM; in [3], 27.8 µM; in assay [4] it was 29.4 µM; in assay [5] it was 44.4 µM; in [6] it was 43.2 µM. Also, the TGI in assay [7] was 32.3 µM; in assay [8], 34.3 µM; in [9], 30.9 µM; in [10] it was 30.2 µM.

Regarding `Cc1cccc(C(C)(C)C)c1NC(=O)/C(Cc1nc2ccc([N+](=O)[O-])cc2[nH]c1=O)=N/NC(=O)C[N+](C)(C)C`, the TGI in [1], in [2], in assay [3], in assay [4], in assay [5] and in assay [6] was above 100 µM throughout. Moreover, the TGI in assay [7], in [8], in assay [9] and in assay [10] was above 100 µM in each case.

With `CCOc1ccc2[nH]c3c(C)c4cc[n+](C)cc4c(C)c3c2c1`, in assay [1], the GI50 is 0.791 µM and 1.6 µM. Besides, the TGI in assay [1] was 2.62 µM and 4.69 µM; in assay [2], 10.6 µM and 16.2 µM; in [3], 28.4 µM and 32.7 µM; in assay [4], 32 µM and > 44.7 µM; in assay [5], 24.5 µM and 18.3 µM; in assay [6], 3.38 µM and 3.31 µM. The TGI was 15.2 µM and 26.2 µM in assay [7]; 0.605 µM and 1.18 µM in assay [8]; 2.53 µM and 8.79 µM in [9]; 13.7 µM and 27.8 µM in [10].
